The values that follow come from US5919797A, “Halogenated naphthyl methoxy piperidines for mapping serotonin transporter sites” (Emory University, priority 1997, dated 1999).

“Also recorded” adds a separate entry of the source. Counter-ions that a name gives are not always drawn. Like-named read-outs stand apart in the source and are kept apart here. Bounds are passed on as bounds.

Test [1] deals with serotonin transporter sites. Conditions: carbon-11 labelled, vs previously tested PET serotonin transporter ligands; cited from earlier work.
The target in test [2] is T1, serotonin transporter (Rattus norvegicus, UniProt P31652).
T1 construct: from tissue; host or cells: rat cerebral cortex homogenate
Nature of the test: inhibition of [3H]-citalopram binding to rat cortical homogenates (competitive radioligand binding assay). The source says:
Compounds of the invention have activity as specific ligands of the serotonin transporter. In particular, the 1-halonaphthalenyl pharmacophore has high affinity for the serotonin transporter. […] Halogen substituents can be in naturally-occurring or radioisotopic form.
Many compounds have been described in the literature as selective inhibitors of the presynaptic reuptake of serotonin (5-hydroxytryptamine,5-HT). […] A good correlation exists between the capacities of a variety of drugs to inhibit [^3 -H]-citalopram binding and [^3 -H]-5HT uptake in rat cortex, thus allowing this binding test to be used in screening for new 5-HT uptake inhibitors. […]

The test system of test [3] is serotonergic neurons. As to the kind of experiment: biodistribution studies in rats of radiolabelled compound. The test is classed as in vivo, rat. To be noted: 123-I labelled.
Test [4] has as its system 5HT3 receptor. Nature of the test: inhibition of [3H] GR65630 binding to serotonergic synaptosomal preparation. The source says:
5HT3 receptor activity. It blocked the binding of [3H] GR65630 to […]

Test [5] deals with presynaptic reuptake of serotonin. To be noted: humans; depression, obsessive-compulsive and eating disorders, alcoholism, drug addiction; cited from earlier work.
Test [6] deals with serotonin transporter. Conditions: radiolabeled with carbon-11 and fluorine-18; cited from earlier work.
Where [7] appears, read: Table 1, rat cortical tissue, read-out: [3H]-Citalopram Binding IC50.
[8] abbreviates: Table 1, rat cortical tissue, read-out: [3H]-Citalopram Binding Ki.
Setting [9] is: concentration needed to achieve 50% inhibition of citalopram binding (IC50), rat cortical homogenates.
The mark [10] stands for this setting: serotonergic synaptosomal preparation.

One may read the IC50 as the concentration that gives 50% inhibition. As a reminder, the Ki is the dissociation constant of the complex between target and ligand, obtained from inhibition or displacement.

T1 sequence (P31652 whole entry): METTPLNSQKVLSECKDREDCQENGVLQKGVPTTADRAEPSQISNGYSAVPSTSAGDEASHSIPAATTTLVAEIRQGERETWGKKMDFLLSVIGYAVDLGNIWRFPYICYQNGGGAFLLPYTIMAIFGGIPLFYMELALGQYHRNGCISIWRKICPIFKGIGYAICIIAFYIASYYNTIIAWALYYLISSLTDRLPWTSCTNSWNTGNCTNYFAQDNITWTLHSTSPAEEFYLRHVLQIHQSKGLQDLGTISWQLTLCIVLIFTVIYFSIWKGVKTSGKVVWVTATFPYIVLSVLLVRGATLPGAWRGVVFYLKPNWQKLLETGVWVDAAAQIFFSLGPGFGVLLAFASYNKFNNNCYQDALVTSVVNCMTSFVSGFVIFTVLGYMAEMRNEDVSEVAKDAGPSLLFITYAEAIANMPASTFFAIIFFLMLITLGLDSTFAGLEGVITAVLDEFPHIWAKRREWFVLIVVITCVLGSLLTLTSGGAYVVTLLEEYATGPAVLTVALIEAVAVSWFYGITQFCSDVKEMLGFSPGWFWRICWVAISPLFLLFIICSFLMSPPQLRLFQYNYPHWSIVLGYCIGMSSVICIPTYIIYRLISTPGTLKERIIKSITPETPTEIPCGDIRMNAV

Regarding `[11CH3]Sc1ccc([C@H]2CN3CCC[C@H]3c3ccccc32)cc1` [Carbon-11 McN-5652Z], the “accumulation in brain regions rich in serotonergic neurons, in words” value in test [1] is listed as “greatest accumulation in brain regions rich in serotonergic neurons”.
Take `Brc1c(COC2CCNCC2)ccc2ccccc12.Cl` [Compound 1, 4-[(1-Bromo-2-naphthalenyl)methoxy]piperidine hydrochloride]: the values for the IC50 in test [2] (setting [7]) and in test [2] (setting [9]) were 0.02 nM and 0.015 nM, respectively. Besides, the Ki in test [2] (setting [8]) was 0.014 nM. Moreover, the “inhibition of [3H]-citalopram binding / affinity for the serotonin transporter, in words” value in test [2] (rat cortical tissue) is on record as “most potent inhibitor”. Besides, the “potency relative to fluoxetine, inhibition of [3H]-citalopram binding” value in test [2] (rat cortical tissue, vs fluoxetine (Prozac)) worked out at 100 fold.
In test [2], `Ic1c(COC2CCNCC2)ccc2ccccc12` [Compound 2, 4[(1-Iodo-2-naphthalenyl)methoxyl]piperidine hydrochloride] gave a Ki of 4.13 nM. The IC50 came to 5.9 nM in test [2] ([3H]-Citalopram Binding IC50, Table 1, rat cortical tissue) and 4.1 nM in test [2] (setting [9]).
`Cl.Fc1c(COC2CCNCC2)ccc2ccccc12` [Compound 3, 4-[(1-Fluoro-2-naphthalenyl)methoxy]-piperidine hydrochloride]: the figures for the IC50 in test [2] (setting [7]) and in test [2] (setting [9]) were 5.74 nM and 3.37 nM, respectively. Besides, in test [2] (setting [8]), the Ki came to 3.37 nM. Besides, in test [2] (rat cortical tissue), the “inhibition of [3H]-citalopram binding / affinity for the serotonin transporter, in words” value was “inhibitory activity comparable to that of fluoxetine and fluvoxamine”.
Regarding `Cl.Clc1c(COC2CCNCC2)ccc2ccccc12` [Compound 4, 4-[(1-Chloro-2-naphthalenyl)methoxy]-piperidine hydrochloride], the IC50 in test [2] (setting [7]) was found to be 2.12 nM; in test [2] (setting [9]) it was 1.24 nM. Moreover, the Ki in test [2] (setting [8]) came to 1.24 nM. The “inhibition of [3H]-citalopram binding / affinity for the serotonin transporter, in words” value in test [2] (rat cortical tissue) was “inhibitory activity comparable to that of fluoxetine and fluvoxamine”.
`Brc1c(COC2CCNCC2)c(I)cc2ccccc12` [Compound 5, 4-[(1-Bromo-3-iodo-2-naphthalenyl)methoxy]piperidine hydrochloride]: the IC50 in test [2] (setting [7]) worked out at 54.6 nM. For the same compound, the Ki in test [2] (setting [8]) stood at 36.9 nM.
With `Brc1c(COC2CCNCC2)cc(I)c2ccccc12` [Compound 6, 4-[(1-bromo-4-iodo-2-naphthalenyl)methoxy]piperidine hydrochloride], in test [2] (setting [7]), the IC50 is 24.6 nM. Further, the Ki in test [2] (setting [8]) worked out at 16.7 nM.
In the case of `Brc1c(COC2CCNCC2)ccc2cc(I)ccc12` [Compound 7, 4-[(1-Bromo-6-iodo-2-naphthalenyl)methoxy]piperidine hydrochloride], the IC50 in test [2] (setting [7]) worked out at 60 nM. In addition, the Ki in test [2] (setting [8]) is 58.4 nM.
For the compound `[123I]c1c(COC2CCNCC2)ccc2ccccc12` [Compound 58], the “selective accumulation of radioactivity in serotonergic neurons” value in test [3] is listed as “did not lead to selective accumulation of the radioactivity in serotonergic neurons”.
Consider `c1ccc2nc(COC3CCNCC3)ccc2c1` [Compound 70, 4-[(2-quinolenyl)methoxy]piperdine hydrochloride], for which the IC50 in test [2] (setting [7]) is greater than 100 nM; in test [4] (setting [10]), 7.4 nM. For the same compound, the Ki was greater than 100 nM in test [2] (setting [8]) and 3.24 nM in test [4] (setting [10]). Also, the “inhibition of [3H]-citalopram binding / affinity for the serotonin transporter, in words” value in test [2] (rat cortical tissue) is listed as “devoid of affinity for the serotonin transporter”. In addition, in test [4] (hydrochloride), the “5-HT3 antagonism, in words” value is “high selectivity as an antagonist of 5-HT3 function; also recorded: potent inhibitor”.
Take `COCCCC/C(=N\OCCN)c1ccc(C(F)(F)F)cc1` [fluvoxamine]: the “therapeutic value, in words” value in test [5] is on record as “considerable therapeutic value”.
As to `O=[N+]([O-])c1ccc2nc(N3CCNCC3)ccc2c1` [nitroquipazine], the “image quality / in vivo affinity and selectivity, in words” value in test [6] is “poor quality images”.
